Experimental data as given in patent US20200000840A1, “USE OF CYCLODEXTRINS TO REDUCE ENDOCYTOSIS IN MALIGNANT AND NEURODEGENERATIVE DISORDERS” (priority 2016, published 2020).
“And” between values parts separate entries of the source, which are not always exact repeats. Equal values may be shown once. Read-outs that look alike come from different tables or passages of the source. Marks after values point to notes of the source that are not given here.

Columns and labels:
[1] = system: human epithelial colorectal adenocarcinoma (Caco-2) cells; conditions: cited from earlier work
BBB = conditions: cited from earlier work; for Transport across BBB: 2 h, 1 mM
transferrin endocytosis = conditions: 10 mM; cited from earlier work
human keratinocytes = conditions: cited from earlier work
[2] = rats, rabbits, dogs, and humans; cited from earlier work
Ab1-40/42 = conditions: rats, stereotactical injection into the hippocampus; cited from earlier work
rats [3] = conditions: rat; cited from earlier work
rats [4] = conditions: […] daily; cited from earlier work
rats [5] = conditions: cited from earlier work
[6] = in vivo; cited from earlier work
MCF-7 cells = test: Wound healing / gap closure migration assay (CytoSelect CBA-120); assay type: cell-based, human; conditions: treated 2 hours
Experimental: (§1) Published results have shown that β-CD inhibits human MDA-MB 231 cell migration (Guerra et al. 2016). This inhibition was attributed to the ability of β-CD to “deplete cholesterol”. β-CD, however, depletes also phospholipids. […] Cells were cultured in 24-well culture plates (Cytoselect CBA-120, 0.9 mm wound healing/gap closure migration assay) for 24 hours with wound healing insert in place. […] Protocol: Warm up the 24-well plate (CBA-120, Cell BioLabs Inc.) with 0.9 mm CytoSelect Wound Healing Inserts at room temperature for 10 minutes. Using sterile forceps, orient the desired number of inserts in the plate wells with their “wound field” aligned in the same direction. Create a cell suspension containing 0.5-1.0×10^6 cells/ml in media containing 10% fetal bovine serum (FBS). Add 500 μL of cell suspension to each well by carefully inserting the pipette tip through the open end at the top of the insert. For optimal cell dispersion, add 250 μL of cell suspension to either side of the open ends at the top of the insert. Incubate cells in a cell culture incubator for 12-24 hours. Carefully remove the insert from the well to begin the wound healing assay. Use sterile forceps to grab and lift the insert slowly from the plate well. Slowly aspirate and discard the media from the wells. Wash wells with media to remove dead cells and debris. Finally, add media to wells to keep cells hydrated. Repeat wash if wells still have debris or unattached cells. When washing is complete, add media with FBS and/or compounds to continue cell culture and wound healing process. Agents that inhibit or stimulate cell migration can be added directly to the wells. Incubate cells in a cell culture incubator (2 hours) and then wash cells with PBS and then add fresh media without compounds. Incubate 12-24 hours before wash and fixing. Remove the fixation solution and add 400 μL of Cell Stain Solution to each well. Allow the stain to incubate with the cells for 15 minutes at room temperature. Aspirate and discard the solution. Carefully wash each stained well 3× with deionized water. Discard washes and allow cells to dry at room temperature. Cells that migrated into the wounded area or protruded from the border of the wound were visualized and photographed under an inverted microscope. Determine the surface area of the defined wound area: Total Surface Area=0.9 mm x length. Determine the surface area of the migrated cells into the wound area: Migrated Cell Surface Area=length of cell migration (mm)×2 x length. Percent Closure (%)=Migrated Cell Surface Area/Total Surface Area x 100.

MDA-MB-231 cells = test: as above; assay type: cell-based, human; conditions: treated 2 hours
Experimental: as §1

[7] = system: MDA-MB 231 and MCF-7 human breast epithelial cell lines; test: Wound healing assay, overall statements for both cell lines; assay type: cell-based
Experimental: as §1

[8] = Table 2; cited from earlier work
[9] = target: BC resistance protein (BCRP/ABCG2) (Homo sapiens, UniProt Q9UNQ0); conditions: cited from earlier work
[10] = system: H7 Lewis lung cancer cell lines; conditions: three H7 Lewis lung cancer cell lines; cited from earlier work
[11] = system: BC and prostate cancer cell lines; conditions: cancer cell lines vs normal counterparts; cited from earlier work
[12] = system: MDA-MB-241 and ZR751 BC cells; conditions: cited from earlier work
MCF7 BC cells = conditions: cited from earlier work
urothelial cancer cells = conditions: cited from earlier work
[13] = system: RTK-[PIP2]-PI3K-[PIP3]-AKT signaling in HeLa cells; conditions: cited from earlier work
leukemia cell lines = conditions: cited from earlier work
mouse model of BC = conditions: cited from earlier work
[14] = system: H7-O Lewis lung cancer cells; conditions: mice implanted with H7-O Lewis lung cancer cells; cited from earlier work
[15] = system: primary effusion lymphoma (PEL); conditions: mice; cited from earlier work
α-synuclein = conditions: mice, neuronal cell body and synapses; cited from earlier work
MDA-MB-231 BC cells = conditions: cited from earlier work
human erythrocytes = conditions: human erythrocytes; cited from earlier work

BC resistance protein (BCRP/ABCG2), sequence (Q9UNQ0 whole entry): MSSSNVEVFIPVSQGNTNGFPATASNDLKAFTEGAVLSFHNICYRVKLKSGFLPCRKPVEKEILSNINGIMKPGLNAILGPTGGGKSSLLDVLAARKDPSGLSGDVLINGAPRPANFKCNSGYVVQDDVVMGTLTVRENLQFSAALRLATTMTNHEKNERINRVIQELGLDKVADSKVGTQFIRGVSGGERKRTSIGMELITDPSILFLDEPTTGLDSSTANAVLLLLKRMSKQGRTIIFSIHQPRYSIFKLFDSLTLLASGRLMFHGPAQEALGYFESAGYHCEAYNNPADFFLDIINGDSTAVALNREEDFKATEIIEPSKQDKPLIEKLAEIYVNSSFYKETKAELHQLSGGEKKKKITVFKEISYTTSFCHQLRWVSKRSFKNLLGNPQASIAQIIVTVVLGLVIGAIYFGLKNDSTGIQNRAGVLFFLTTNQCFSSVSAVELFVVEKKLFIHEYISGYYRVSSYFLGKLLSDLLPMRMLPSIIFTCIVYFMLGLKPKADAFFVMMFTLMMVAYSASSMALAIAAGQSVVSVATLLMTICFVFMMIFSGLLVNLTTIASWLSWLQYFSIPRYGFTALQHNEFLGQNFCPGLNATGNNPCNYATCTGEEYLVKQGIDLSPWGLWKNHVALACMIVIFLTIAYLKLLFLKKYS

For maltosyl-α-cyclodextrin, the cytotoxicity [1] is listed as “less cytotoxic than α-cyclodextrin”.
In the case of OC[C@H]1O[C@@H]2O[C@H]3[C@H](O)[C@@H](O)[C@@H](O[C@H]4[C@H](O)[C@@H](O)[C@@H](O[C@H]5[C@H](O)[C@@H](O)[C@@H](O[C@H]6[C@H](O)[C@@H](O)[C@@H](O[C@H]7[C@H](O)[C@@H](O)[C@@H](O[C@H]8[C@H](O)[C@@H](O)[C@@H](O[C@H]1[C@H](O)[C@H]2O)O[C@@H]8CO)O[C@@H]7CO)O[C@@H]6CO)O[C@@H]5CO)O[C@@H]4CO)O[C@@H]3CO [β-cyclodextrin, beta-cyclodextrin], the “Transport across BBB” value (BBB) is given as 9.3 (1 mM) %, the BBB breakdown (BBB) is given as 2.5 mM and the “reduction of transferrin endocytosis” value (transferrin endocytosis) is given as 80%. For the same compound, the apoptotic cell death (human keratinocytes) was “induces caspase-dependent apoptotic cell death”, the “steady-state volume of distribution” value [2] was “corresponds well with the extracellular fluid volume of each species” and the “toxicity of Ab1-40/42” value (Ab1-40/42) was “Toxicity of Ab1-40/42 was reduced”. The LD50 (rats [3]) was 788 mg/kg, the “deaths, daily doses s.c.” value (rats [4]) was “no deaths” and the “acute i.v. toxicity in rats” value (rats [5]) was 1 g/kg.
For alendronate-β-CD [ALN-β-CD], the effect on bone [6] is listed as “bone-anabolic”.
For “hydroxypropyl-alpha-cyclodextrin [HPaCD]”, the average wound closure (MCF-7 cells; 1 mM) was 41.33%, the “wound closure (Percent Closure), replications r1-r3” value (“wound closure (Percent Closure)” below) (MCF-7 cells; 1 mM) was 35.00% and 41.00% and 48.00% and the average wound closure (MCF-7 cells; 2 mM) was 36.00%. For the same compound, the “wound closure (Percent Closure)” value (MCF-7 cells; 2 mM) was 40.00% and 30.00% and 38.00%, the average wound closure (MCF-7 cells; 4 mM) was 28.67% and the “wound closure (Percent Closure)” value (MCF-7 cells; 4 mM) was 28.00% and 22.00% and 36.00%. For the same compound, the average wound closure (MDA-MB-231 cells; 1 mM) was 53.00%, the “wound closure (Percent Closure)” value (MDA-MB-231 cells; 1 mM) was 47.00% and 53.00% and 59.00% and the average wound closure (MDA-MB-231 cells; 2 mM) was 40.00%. The “wound closure (Percent Closure)” value (MDA-MB-231 cells; 2 mM) was 40.00% and 33.00% and 47.00%, the average wound closure (MDA-MB-231 cells; 4 mM) was 31.67% and the “wound closure (Percent Closure)” value (MDA-MB-231 cells; 4 mM) was 38.00% and 32.00% and 25.00%. For the same compound, the “inhibition at 1 mM HPaCD compared with 2 mM HPbCD” value [7] was “superior to inhibition at 2 mM HPbCD”, the migration versus concentration ([7]; 1-4 mM) was “migration decreased with higher concentration” and the “effect on migration, HPaCD compared with HPbCD” value ([7]; all cases) was “stronger effect on migration than HPbCD”. For the same compound, the Solubility in water [8] was ~500^a g/l, the “Transport across BBB” value (BBB) was 26.7 (1 mM) % and the BBB breakdown (BBB) was 2.5 mM. The cytotoxicity ([1]; Caco-2 cells) was “less cytotoxic than α-cyclodextrin”.
For methyl-β-cyclodextrin [MβCD], the “decrease in activity of BCRP/ABCG2” value [9] is given as 40%, the invasion activity [10] is given as “suppressed invasion activity” and the “sensitivity to induced cell death” value [11] is given as “more sensitive to MβCD-induced cell death than their normal counterparts”. The “spheroid migration and invasion” value [12] was “inhibited”, the endocytosis (MCF7 BC cells) was “inhibited” and the migration (MCF7 BC cells) was “inhibited”. For the same compound, the “toxicity, invasive vs non-invasive cells” value (urothelial cancer cells) was “more toxic for invasive than for non-invasive urothelial cancer cells”, the “RTK-[PIP2]-PI3K-[PIP3]-AKT signaling” value [13] was “interfered with RTK-[PIP2]-PI3K-[PIP3]-AKT signaling” and the “growth of leukemia cell lines” value (leukemia cell lines) was “inhibited the growth”. The concentration in tumor (mouse model of BC) was “higher concentration in tumor than in other cells (except kidney and liver)”, the “efficacy in mouse model of BC” value (mouse model of BC; in vivo) was “effective” and the “number of lung metastases” value [14] was “reduced the number of lung metastases”. For the same compound, the “growth of primary effusion lymphoma” value [15] was “inhibited growth”, the “accumulation of α-synuclein” value (α-synuclein) was “reduced accumulation of α-synuclein” and the “internalization of exosomes containing integrins” value (MDA-MB-231 BC cells) was “inhibited the internalization of exosomes”.
For OC[C@H]1O[C@@H]2O[C@H]3[C@H](O)[C@@H](O)[C@@H](O[C@H]4[C@H](O)[C@@H](O)[C@@H](O[C@H]5[C@H](O)[C@@H](O)[C@@H](O[C@H]6[C@H](O)[C@@H](O)[C@@H](O[C@H]7[C@H](O)[C@@H](O)[C@@H](O[C@H]8[C@H](O)[C@@H](O)[C@@H](O[C@H]9[C@H](O)[C@@H](O)[C@@H](O[C@H]1[C@H](O)[C@H]2O)O[C@@H]9CO)O[C@@H]8CO)O[C@@H]7CO)O[C@@H]6CO)O[C@@H]5CO)O[C@@H]4CO)O[C@@H]3CO [γ-CD, gamma-cyclodextrin], the hemolytic activity (human erythrocytes) is given as “β-CD>α-CD>γ-CD”.
